Data taken from ChEMBL document CHEMBL5241069, “A key review on oxadiazole analogs as potential methicillin-resistant Staphylococcus aureus (MRSA) activity: Structure-activity relationship studies” (Eur J Med Chem, 2021).
Values after ≈ are worked out from the molar mass of the structure shown.

What was measured:
Staphylococcus aureus [1] = test: Antimicrobial activity against methicillin resistant Staphylococcus aureus 2658 RCMB assessed as inhibition of bacterial growth incubated for 20 hrs by CLSI protocol based broth microdilution method; assay type: functional
Staphylococcus aureus [2] = test: Antibacterial activity methicillin resistant Staphylococcus aureus 2658 RCMB assessed as inhibition of bacterial growth by broth microdilution method; assay type: functional
Staphylococcus aureus [3] = test: microbe, parasite or virus in culture; settings: 032
Description: Antibacterial activity against methicillin resistant Staphylococcus aureus 032 assessed as inhibition of bacterial growth by CLSI protocol based serial dilution method

Staphylococcus aureus [4] = test: Antimicrobial activity against methicillin resistant Staphylococcus aureus 1 assessed as inhibition of bacterial growth incubated for 16 to 20 hrs by CLSI protocol based Muller-Hinton broth method; assay type: functional; settings: time 16-20 hrs
Staphylococcus aureus [5] = test: Antimicrobial activity against methicillin resistant Staphylococcus aureus 2 assessed as inhibition of bacterial growth incubated for 16 to 20 hrs by CLSI protocol based Muller-Hinton broth method; assay type: functional; settings: time 16-20 hrs
Staphylococcus aureus [6] = test: Antimicrobial activity against methicillin resistant Staphylococcus aureus 3 assessed as inhibition of bacterial growth incubated for 16 to 20 hrs by CLSI protocol based Muller-Hinton broth method; assay type: functional; settings: time 16-20 hrs
Staphylococcus aureus [7] = test: Antibacterial activity against methicillin resistant Staphylococcus aureus ATCC 33592 incubated for 24 hrs by Mueller-Hinton broth based assay; assay type: functional
Staphylococcus aureus [8] = test: Antibacterial activity against methicillin resistant Staphylococcus aureus assessed as inhibition zone by CLSI protocol based agar disc diffusion method; assay type: functional
Staphylococcus aureus [9] = test: Antibacterial activity against methicillin resistant Staphylococcus aureus MW2 assessed as inhibition of bacterial growth incubated for 16 to 20 hrs by CLSI protocol based Mueller-Hinton broth method; assay type: functional; settings: time 16-20 hrs
Staphylococcus aureus [10] = test: Antibacterial activity against methicillin resistant Staphylococcus aureus USA300 assessed as inhibition of bacterial growth incubated for 16 to 20 hrs by CLSI protocol based Mueller-Hinton broth method; assay type: functional; settings: time 16-20 hrs
Staphylococcus aureus [11] = test: Antibacterial activity against methicillin resistant Staphylococcus aureus ATCC 43300 assessed as inhibition of bacterial growth incubated for 24 to 48 hrs by spectrophotometric analysis; assay type: functional; settings: time 24-48 hrs
Staphylococcus aureus [12] = test: Antibacterial activity against methicillin resistant Staphylococcus aureus MTCC 84 incubated for 24 hrs by serial dilution method; assay type: functional
Staphylococcus aureus [13] = test: Antimicrobial activity against methicillin resistant Staphylococcus aureus ATCC 43300 assessed as inhibition of bacterial growth incubated for 18 to 24 hrs by broth microdilution method; assay type: functional; settings: time 18-24 hrs
Staphylococcus aureus [14] = test: Antibacterial activity against methicillin resistant Staphylococcus aureus assessed as inhibition zone by disc diffusion method; assay type: functional

Molecule `CNC(=N)Nc1nnc(-c2sc(-c3ccc4ccccc4c3)nc2C)o1` has an MIC (Staphylococcus aureus [1]) of 3.9 µg/mL (≈ 10.7 µM).

For `Cc1nc(-c2ccc(C(C)(C)C)cc2)sc1-c1nnc(NC(=N)N2CCOCC2)o1`, the MIC (Staphylococcus aureus [2]) was 25 µg/mL (≈ 58.6 µM).

With `Cc1nc(/C(=C\c2coc3ccc(Cl)cc3c2=O)c2ccc([N+](=O)[O-])cc2)no1` the MIC (Staphylococcus aureus [3]) was over 32 µg/mL.

With `CCn1cc(C(=O)O)c(=O)c2cc(F)c(N3CCN(Cc4nnc(-c5ccccc5Cl)o4)CC3)cc21` the MIC (Staphylococcus aureus [4]) was 0.5 µg/mL (≈ 0.977 µM), the MIC (Staphylococcus aureus [5]) was 1 µg/mL (≈ 1.95 µM) and the MIC (Staphylococcus aureus [6]) was 1 µg/mL (≈ 1.95 µM).

Molecule `Cc1cc(C(=O)Nc2nnc(-c3ccc(C(F)(F)F)cc3)o2)ccc1S(=O)(=O)N1C[C@H](C)C[C@H](C)C1` has an MIC (Staphylococcus aureus [7]) of 11 µg/mL (≈ 21.1 µM).

With `Cc1nc(-c2ccc3ccccc3c2)sc1-c1nnc(NC(=N)N2CCNCC2)o1` the MIC (Staphylococcus aureus [1]) was 1.95 µg/mL (≈ 4.65 µM).

In the case of `O=P(Oc1ccccc1)(Oc1ccccc1)C(Nc1nnc(-c2cccc(Br)n2)o1)c1ccc(Cl)c(F)c1` (stereo unspecified), the “inhibition zone (IZ)” value (Staphylococcus aureus [8]) was 17 mm.

Molecule `CCCCC(=O)Nc1nnc(-c2ccc(Cl)cc2)o1` has an MBC (Staphylococcus aureus [9]) of 64 µg/mL (≈ 229 µM) and an MBC (Staphylococcus aureus [10]) of 8 µg/mL (≈ 28.6 µM).

`O=C(/C=C/c1cccc([N+](=O)[O-])c1)N1N=C(c2ccncc2)OC1c1cn(-c2ccccc2)nc1-c1ccc(F)cc1` (stereo unspecified) was tested, and the MIC (Staphylococcus aureus [11]) was over 50 µg/mL.

In the case of `Cc1nc(-c2ccc(C(C)(C)C)cc2)sc1-c1nnc(NC(=N)c2cccnc2)o1`, the MIC (Staphylococcus aureus [2]) was over 50 µg/mL.

`Cc1nc(-c2ccc(C(C)(C)C)cc2)sc1-c1nnc(NC(=N)N)o1` was tested, and the MIC (Staphylococcus aureus [2]) was 6.25 µg/mL (≈ 17.5 µM).

Molecule `CCn1cc(C(=O)O)c(=O)c2cc(F)c(N3CCN(Cc4nnc(-c5cccc(C)c5)o4)CC3)cc21` has an MIC (Staphylococcus aureus [4]) of 1 µg/mL (≈ 2.03 µM), an MIC (Staphylococcus aureus [5]) of 1 µg/mL (≈ 2.03 µM) and an MIC (Staphylococcus aureus [6]) of 2 µg/mL (≈ 4.07 µM).

`Cc1nc(-c2ccc(C(C)(C)C)cc2)sc1-c1nnc(NN)o1` showed an MIC (Staphylococcus aureus [2]) of 6.25 µg/mL (≈ 19 µM).

Molecule `O=C(/C=C/c1cccc(F)c1)N1N=C(c2ccncc2)OC1c1cn(-c2ccccc2)nc1-c1ccc(F)cc1` (stereo unspecified) has an MIC (Staphylococcus aureus [11]) of 25 µg/mL (≈ 46.9 µM).

`CCn1cc(C(=O)O)c(=O)c2cc(F)c(N3CCN(Cc4nnc(-c5ccc(C#N)cc5)o4)CC3)cc21` gave an MIC (Staphylococcus aureus [4]) of 1 µg/mL (≈ 1.99 µM), an MIC (Staphylococcus aureus [5]) of 1 µg/mL (≈ 1.99 µM) and an MIC (Staphylococcus aureus [6]) of 2 µg/mL (≈ 3.98 µM).

For `Cc1nc(-c2ccc(C(C)(C)C)cc2)sc1-c1nnc(NC(=N)c2ccncc2)o1`, the MIC (Staphylococcus aureus [2]) was over 50 µg/mL.

For `Cc1ccc(OCc2nnco2)c(C(=O)c2cccc(Cl)c2)c1`, the MIC (Staphylococcus aureus [12]) was 62.5 µg/mL (≈ 190 µM).

In the case of `Cc1nc(/C(=C\c2coc3ccccc3c2=O)c2ccc([N+](=O)[O-])cc2)no1`, the MIC (Staphylococcus aureus [3]) was over 32 µg/mL.

In the case of `O=C(N[C@H](CO)[C@H](O)c1ccc([N+](=O)[O-])cc1)C(Cl)Cl` [CHLORAMPHENICOL], the MIC (Staphylococcus aureus [11]) was 50 µg/mL (≈ 155 µM).

`Cc1nc(/C(=C\c2coc3cc(C)c(Cl)cc3c2=O)c2ccc([N+](=O)[O-])cc2)no1` gave an MIC (Staphylococcus aureus [3]) of 16 µg/mL (≈ 37.8 µM).

GENTAMICIN showed an MIC (Staphylococcus aureus [13]) of 100 µg/mL.

With `O=[N+]([O-])c1ccc(C(Nc2nnc(-c3cccc(Br)n3)o2)P(=O)(Oc2ccccc2)Oc2ccccc2)cc1F` (stereo unspecified) the “inhibition zone (IZ)” value (Staphylococcus aureus [8]) was 17 mm.

For `O=C(O)c1cn(C2CC2)c2cc(N3CCNCC3)c(F)cc2c1=O` [CIPROFLOXACIN], the “inhibition zone (IZ)” value (Staphylococcus aureus [14]) was 22 mm and the MIC (Staphylococcus aureus [12]) was over 100 µg/mL.

For `Cc1nc(-c2ccc3ccccc3c2)sc1-c1nnc(NC(=N)N)o1`, the MIC (Staphylococcus aureus [1]) was 1.95 µg/mL (≈ 5.56 µM).

In the case of `CN[C@@H]1[C@H](O[C@H]2[C@H](O[C@H]3[C@H](O)[C@@H](O)[C@H](N=C(N)N)[C@@H](O)[C@@H]3N=C(N)N)O[C@@H](C)[C@]2(O)C=O)O[C@@H](CO)[C@H](O)[C@H]1O` [STREPTOMYCIN], the MIC (Staphylococcus aureus [12]) was over 100 µg/mL.

`COc1cc(OC)cc(-c2nnc(NC(=O)c3ccc(S(=O)(=O)C4COCC4(C)C)cc3)o2)c1` (stereo unspecified) was tested, and the MBC (Staphylococcus aureus [9]) was 16 µg/mL (≈ 32.8 µM) and the MBC (Staphylococcus aureus [10]) was 8 µg/mL (≈ 16.4 µM).

In the case of `Cc1nc(-c2ccc(C(C)(C)C)cc2)sc1-c1nnc(NC(=N)N2CCN(C)CC2)o1`, the MIC (Staphylococcus aureus [2]) was 25 µg/mL (≈ 56.9 µM).
